Measurements published in PubChem BioAssay (NCI).
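Grown in 96-well plates, cells were treated for 48 hours with each compound at five concentrations. Insufficient inhibition: endpoint recorded as highest concentration tested. At the GI50, growth is halved. Definition used: TGI = concentration required for complete inhibition of growth.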

Assays:
Assay in all cases: NCI-60 cell line screen, 48 h
[1] = test system: T-47D breast
[2] = test system: SN12C renal
[3] = test system: UACC-62 melanoma
[4] = test system: MOLT-4 leukemia
[5] = test system: HL-60(TB) leukemia
[6] = test system: CCRF-CEM leukemia
[7] = test system: UACC-257 melanoma
[8] = test system: 786-0 renal
[9] = test system: COLO 205 colon
[10] = test system: SNB-75 CNS
[11] = test system: A549 NSCLC
[12] = test system: OVCAR-8 ovarian
[13] = test system: HCC-2998 colon
[14] = test system: CAKI-1 renal
[15] = test system: TK-10 renal
[16] = test system: SK-OV-3 ovarian
[17] = test system: MALME-3M melanoma
[18] = test system: PC-3 prostate
[19] = test system: SF-539 CNS
[20] = test system: RPMI-8226 leukemia
[21] = test system: NCI-H226 lung
[22] = test system: MDA-MB-231 breast
[23] = test system: NCI-H23 lung
[24] = test system: HCT-116 colon
[25] = test system: OVCAR-4 ovarian
[26] = test system: SK-MEL-28 melanoma
[27] = test system: SK-MEL-5 melanoma
[28] = test system: HCT-15 colon
[29] = test system: A498 renal
[30] = test system: HS 578T breast
[31] = test system: SK-MEL-2 melanoma
[32] = test system: ACHN renal
[33] = test system: LOX IMVI melanoma
[34] = test system: K-562 leukemia
[35] = test system: SNB-19 CNS
[36] = test system: SF-295 CNS
[37] = test system: NCI-H460 lung
[38] = test system: OVCAR-3 ovarian
[39] = test system: SW-620 colon
[40] = test system: NCI-H522 lung
[41] = test system: OVCAR-5 ovarian
[42] = test system: UO-31 renal
[43] = test system: HOP-62 NSCLC
[44] = test system: MCF7 breast
[45] = test system: NCI/ADR-RES ovarian
[46] = test system: U251 CNS
[47] = test system: HT29 colon
[48] = test system: SF-268 CNS
[49] = test system: SR leukemia
[50] = test system: MDA-MB-435
[51] = test system: RXF 393 renal
[52] = test system: KM12 colon
[53] = test system: BT-549 breast
[54] = test system: DU-145 prostate
[55] = test system: EKVX NSCLC
[56] = test system: HOP-92 NSCLC
[57] = test system: IGROV1 ovarian
[58] = test system: M14 melanoma

Question: With CCNC(=O)C#Cc1ccc2c(C(=Nc3ccc(CN(C)C)cc3)c3ccccc3)c(O)[nH]c2c1 as the molecule, how does the GI50 [1] read?
Answer: The GI50 was 3210 nM.

Question: And the TGI [1]?
Answer: The TGI was > 6870 nM.

Question: And the GI50 [2]?
Answer: The GI50 was 67.1 nM.

Question: And the TGI [2]?
Answer: Its TGI is 1590 nM.

Question: And the GI50 [3]?
Answer: The GI50 was 7.09 nM.

Question: What about the TGI [3] of the same molecule?
Answer: Its TGI is 77.5 nM.

Question: And the GI50 [4]?
Answer: Its GI50 is 199 nM.

Question: And the TGI [4]?
Answer: The TGI was 2760 nM.

Question: And the GI50 [5]?
Answer: The GI50 was 9.76 nM.

Question: And the TGI [5]?
Answer: The TGI was 932 nM.

Question: What about the GI50 [6] of the same molecule?
Answer: The GI50 was 2.04 nM.

Question: And the TGI [6]?
Answer: The TGI was 5580 nM.

Question: What about the GI50 [7] of the same molecule?
Answer: The GI50 was 21.6 nM.

Question: What about the TGI [7] of the same molecule?
Answer: The TGI was 114 nM.

Question: And the GI50 [8]?
Answer: The GI50 was 356 nM.

Question: What about the TGI [8] of the same molecule?
Answer: The TGI was 2000 nM.

Question: And the GI50 [9]?
Answer: Its GI50 is 3.63 nM.

Question: What about the TGI [9] of the same molecule?
Answer: Its TGI is 71.1 nM.

Question: And the GI50 [10]?
Answer: The GI50 was 750 nM.

Question: What about the TGI [10] of the same molecule?
Answer: The TGI was 2210 nM.

Question: What about the GI50 [11] of the same molecule?
Answer: Its GI50 is 40.1 nM.

Question: What about the TGI [11] of the same molecule?
Answer: Its TGI is > 5340 nM.

Question: And the GI50 [12]?
Answer: The GI50 was 1040 nM.

Question: What about the TGI [12] of the same molecule?
Answer: The TGI was > 10000 nM.

Question: And the GI50 [13]?
Answer: Its GI50 is 106 nM.

Question: And the TGI [13]?
Answer: Its TGI is 696 nM.

Question: What about the GI50 [14] of the same molecule?
Answer: Its GI50 is 119 nM.

Question: What about the TGI [14] of the same molecule?
Answer: The TGI was > 9050 nM.

Question: What about the GI50 [15] of the same molecule?
Answer: Its GI50 is 593 nM.

Question: What about the TGI [15] of the same molecule?
Answer: Its TGI is > 5410 nM.

Question: And the GI50 [16]?
Answer: Its GI50 is 1860 nM.

Question: And the TGI [16]?
Answer: Its TGI is > 10000 nM.

Question: And the GI50 [17]?
Answer: The GI50 was 3.58 nM.

Question: What about the TGI [17] of the same molecule?
Answer: The TGI was 26.8 nM.

Question: And the GI50 [18]?
Answer: The GI50 was 238 nM.

Question: What about the TGI [18] of the same molecule?
Answer: The TGI was > 4790 nM.

Question: What about the GI50 [19] of the same molecule?
Answer: Its GI50 is 121 nM.

Question: What about the TGI [19] of the same molecule?
Answer: Its TGI is 1270 nM.

Question: What about the GI50 [20] of the same molecule?
Answer: The GI50 was 434 nM.

Question: And the TGI [20]?
Answer: Its TGI is 3190 nM.

Question: And the GI50 [21]?
Answer: Its GI50 is 314 nM.

Question: What about the TGI [21] of the same molecule?
Answer: The TGI was > 10000 nM.

Question: And the GI50 [22]?
Answer: Its GI50 is 29.5 nM.

Question: What about the TGI [22] of the same molecule?
Answer: Its TGI is 502 nM.

Question: What about the GI50 [23] of the same molecule?
Answer: Its GI50 is 61.4 nM.

Question: What about the TGI [23] of the same molecule?
Answer: Its TGI is > 4280 nM.

Question: And the GI50 [24]?
Answer: The GI50 was 14.7 nM.

Question: And the TGI [24]?
Answer: The TGI was 1070 nM.

Question: What about the GI50 [25] of the same molecule?
Answer: Its GI50 is 610 nM.

Question: And the TGI [25]?
Answer: Its TGI is 7630 nM.

Question: What about the GI50 [26] of the same molecule?
Answer: Its GI50 is 9.11 nM.

Question: And the TGI [26]?
Answer: The TGI was 102 nM.

Question: What about the GI50 [27] of the same molecule?
Answer: The GI50 was 307 nM.

Question: And the TGI [27]?
Answer: The TGI was 1840 nM.

Question: And the GI50 [28]?
Answer: Its GI50 is 392 nM.

Question: And the TGI [28]?
Answer: The TGI was 4620 nM.

Question: What about the GI50 [29] of the same molecule?
Answer: The GI50 was 27.4 nM.

Question: What about the TGI [29] of the same molecule?
Answer: Its TGI is 179 nM.

Question: What about the GI50 [30] of the same molecule?
Answer: Its GI50 is 291 nM.

Question: What about the TGI [30] of the same molecule?
Answer: Its TGI is 1660 nM.

Question: And the GI50 [31]?
Answer: The GI50 was 32.3 nM.

Question: And the TGI [31]?
Answer: The TGI was 228 nM.

Question: What about the GI50 [32] of the same molecule?
Answer: The GI50 was 265 nM.

Question: And the TGI [32]?
Answer: Its TGI is 2580 nM.

Question: And the GI50 [33]?
Answer: Its GI50 is 6.7 nM.

Question: And the TGI [33]?
Answer: Its TGI is 163 nM.

Question: What about the GI50 [34] of the same molecule?
Answer: The GI50 was 344 nM.

Question: And the TGI [34]?
Answer: The TGI was 3920 nM.

Question: What about the GI50 [35] of the same molecule?
Answer: The GI50 was 206 nM.

Question: And the TGI [35]?
Answer: The TGI was > 5900 nM.

Question: And the GI50 [36]?
Answer: The GI50 was 249 nM.

Question: And the TGI [36]?
Answer: Its TGI is 3310 nM.

Question: And the GI50 [37]?
Answer: Its GI50 is 10.6 nM.

Question: And the TGI [37]?
Answer: Its TGI is 1960 nM.

Question: What about the GI50 [38] of the same molecule?
Answer: Its GI50 is 752 nM.

Question: What about the TGI [38] of the same molecule?
Answer: The TGI was > 10000 nM.

Question: And the GI50 [39]?
Answer: The GI50 was 15.6 nM.

Question: And the TGI [39]?
Answer: Its TGI is 1540 nM.

Question: And the GI50 [40]?
Answer: Its GI50 is 1260 nM.

Question: What about the TGI [40] of the same molecule?
Answer: The TGI was > 5390 nM.

Question: And the GI50 [41]?
Answer: Its GI50 is 26.2 nM.

Question: What about the TGI [41] of the same molecule?
Answer: Its TGI is 732 nM.

Question: And the GI50 [42]?
Answer: The GI50 was 81.1 nM.

Question: And the TGI [42]?
Answer: The TGI was 1340 nM.

Question: What about the GI50 [43] of the same molecule?
Answer: Its GI50 is 109 nM.

Question: What about the TGI [43] of the same molecule?
Answer: The TGI was > 3760 nM.

Question: And the GI50 [44]?
Answer: Its GI50 is 45.8 nM.

Question: And the TGI [44]?
Answer: The TGI was 4590 nM.

Question: What about the GI50 [45] of the same molecule?
Answer: Its GI50 is 1700 nM.

Question: And the TGI [45]?
Answer: The TGI was > 10000 nM.

Question: And the GI50 [46]?
Answer: Its GI50 is 376 nM.

Question: What about the TGI [46] of the same molecule?
Answer: The TGI was 2900 nM.

Question: What about the GI50 [47] of the same molecule?
Answer: Its GI50 is 13 nM.

Question: And the TGI [47]?
Answer: Its TGI is 1390 nM.

Question: And the GI50 [48]?
Answer: The GI50 was 1350 nM.

Question: What about the TGI [48] of the same molecule?
Answer: The TGI was > 9480 nM.

Question: And the GI50 [49]?
Answer: The GI50 was 7.78 nM.

Question: What about the TGI [49] of the same molecule?
Answer: Its TGI is 2930 nM.

Question: What about the GI50 [50] of the same molecule?
Answer: The GI50 was 12.7 nM.

Question: And the TGI [50]?
Answer: Its TGI is 2510 nM.

Question: And the GI50 [51]?
Answer: The GI50 was 123 nM.

Question: And the TGI [51]?
Answer: Its TGI is 703 nM.

Question: And the GI50 [52]?
Answer: The GI50 was 32.3 nM.

Question: And the TGI [52]?
Answer: Its TGI is > 10000 nM.

Question: And the GI50 [53]?
Answer: Its GI50 is 1510 nM.

Question: What about the TGI [53] of the same molecule?
Answer: The TGI was > 10000 nM.

Question: And the GI50 [54]?
Answer: Its GI50 is 1260 nM.

Question: And the TGI [54]?
Answer: The TGI was > 10000 nM.

Question: And the GI50 [55]?
Answer: The GI50 was 470 nM.

Question: What about the TGI [55] of the same molecule?
Answer: The TGI was > 10000 nM.

Question: What about the GI50 [56] of the same molecule?
Answer: The GI50 was 8.12 nM.

Question: And the TGI [56]?
Answer: Its TGI is 53.2 nM.

Question: And the GI50 [57]?
Answer: Its GI50 is 51.1 nM.

Question: And the TGI [57]?
Answer: Its TGI is > 3290 nM.

Question: And the GI50 [58]?
Answer: The GI50 was 7.82 nM.

Question: What about the TGI [58] of the same molecule?
Answer: The TGI was 114 nM.
